System: patients with HER2-negative early breast cancer with BRCA1/2 germline pathogenic/likely pathogenic variants
Test: OlympiA randomized double-blind phase 3 trial: invasive-disease-free, distant-disease-free and overall survival (incl. subgroup and sensitivity analyses)
Type: in vivo
Excerpt: We conducted a randomized double-blind phase 3 trial involving patients with HER2-negative early breast cancer with BRCA1/2 germline pathogenic/likely pathogenic variants (gBRCA-P/LP-variant), and high-risk clinico-pathological factors, after local treatment and (neo)adjuvant chemotherapy. […] The primary endpoint was invasive disease-free-survival.
The trial was designed and conducted as a collaborative partnership between the Breast International Group (BIG) and the sponsors NRG Oncology in the United States (US) and AstraZeneca (AZ) outside the US.
Patients eligible for the trial harbored a gBRCA-P/LP variant defined by local or central testing and high-risk, HER2-negative primary breast cancer following definitive local treatment and neoadjuvant or adjuvant chemotherapy. […] Details of gBRCA-P/LP variant screening, local and central gBRCA-P/LP variant testing, and concordance is provided in Figure S2 and Table S2/S3 in Supplementary Appendix. Any gBRCA-P/LP variant eligibility adjudication was conducted by the trial Genetics Advisory Committee. Local estrogen-receptor, progesterone-receptor and HER2 testing results were used for determination of the hormone-receptor status (cut-point for positive was ≥1%) for stratification and for hormone-receptor-positive specific stage criteria for eligibility (details for receptor status central review and concordance for all patients recruited outside China are provided in Supplementary Appendix Tables S4 and S5).
Patients were required to have completed all local therapy including radiotherapy, which interacts with PARP inhibition, at least 2 and not more than 12 weeks before study entry. Patients had completed at least 6 cycles of neoadjuvant or adjuvant chemotherapy containing anthracyclines, taxanes or both agents. Platinum chemotherapy was allowed. Adjuvant bisphosphonates and adjuvant endocrine therapy in patients with hormone-receptor positive disease were given according to institutional guidelines. No chemotherapy after surgery was allowed in patients who received neoadjuvant chemotherapy.
Patients were stratified by hormone-receptor status (positive versus negative), NACT versus ACT and use of platinum chemotherapy for current breast cancer (yes versus no).
Following randomization, medical history and physical examination were performed on a 4-weekly basis for 24 weeks and then 3-monthly through year 2, 6-monthly assessments in years 3 to 5 and annually thereafter. […] Patients had mammogram and/or breast magnetic-resonance-imaging annually.
After a first event, patients were followed for first distant relapse (if not the first event), CNS metastases, loco-regional relapses, contralateral breast cancer, second primary malignancies and survival status.
In accordance with the standardized definitions for efficacy end points (STEEP) system,^21 the primary endpoint of invasive disease-free survival was defined as the time from randomization until the date of first occurrence of one of the following events: ipsilateral invasive breast tumor, locoregional invasive disease, distant recurrence, contralateral invasive breast cancer, second primary invasive cancer or death from any cause. Patients without a documented invasive disease-free survival event were censored at the date they were last known to be disease-free.
Efficacy analyses were based on the intention-to-treat (ITT) population. Survival functions were estimated by Kaplan-Meier method. The stratified Cox proportional-hazards model was used to estimate the hazard ratio and confidence intervals, the comparison of survival between treatment arms was tested by stratified log-rank test. […] Safety was assessed in the population who received at least one dose of study medication.

[1] = ITT, olaparib-group N=921, Kaplan-Meier, median follow-up 2.5 years
[2] = all deaths, ITT, olaparib N=921
[3] = percentage of the 59 deaths in the olaparib-group

Compound: O=C(c1cc(Cc2n[nH]c(=O)c3ccccc23)ccc1F)N1CCN(C(=O)C2CC2)CC1 [Olaparib, 4-[(3-{[4-(cyclopropane-carbonyl)piperazine-1-yl]carbonyl}-4-fluorophenyl)methyl]-2H-phthalazin-1-one]
- Deaths without a prior IDFS event (ITT, olaparib N=921): 2 no. of patients
- IDFS events (ITT, olaparib N=921): 106 no. of patients
- Total number of deaths (ITT, olaparib N=921): 59 no. of patients
- 3-year distant-disease-free survival [1]: 87.5%
- 3-year invasive-disease-free survival [1]: 85.9%
- difference in 3-year distant-disease-free survival, olaparib vs placebo (ITT, 95% CI 3.0%, 11.1%): 7.1%
- difference in 3-year invasive-disease-free survival, olaparib vs placebo (ITT, 95% CI 4.5%, 13.0%): 8.8%
- Invasive disease free survival Events (%) (Overall): 106 (11.5)/178 (19.5) events (%)
- Primary cause of death: Adverse event [2]: 1 no. of patients
- Primary cause of death: Breast cancer [2]: 55 no. of patients
- Primary cause of death: Other [2]: 3 no. of patients
- Primary cause of death: Adverse event [3]: 1.7%
- Primary cause of death: Breast cancer [3]: 93.2%
- Primary cause of death: Other [3]: 5.1%
- Invasive disease free survival Events (%) (subgroup Age 50-64 years at randomisation): 22 (11.4)/41 (19.5) events (%)
- Invasive disease free survival Events (%) (subgroup Age < 50 years at randomisation): 79 (11.3)/133 (19.8) events (%)
- Invasive disease free survival Events (%) (subgroup Age ≥ 65 years at randomisation): 5 (17.2)/4 (12.5) events (%)
- Invasive disease free survival Events (%) (subgroup BRCA1/2 both with no prior platinum therapy for current breast cancer): 0 (0.0)/0 (0.0) events (%)
- Invasive disease free survival Events (%) (subgroup BRCA1/2 both with prior platinum therapy for current breast cancer): 0/0 (0.0) events (%)
- Invasive disease free survival Events (%) (subgroup BRCA1 with no prior platinum therapy for current breast cancer): 43 (11.2)/91 (24.0) events (%)
- Invasive disease free survival Events (%) (subgroup BRCA1 with prior platinum therapy for current breast cancer): 27 (15.5)/35 (19.6) events (%)
- Invasive disease free survival Events (%) (subgroup BRCA2 with no prior platinum therapy for current breast cancer): 18 (10.2)/30 (17.8) events (%)
- Invasive disease free survival Events (%) (subgroup BRCA2 with prior platinum therapy for current breast cancer): 4 (7.5)/8 (20.0) events (%)
- Invasive disease free survival Events (%) (subgroup BRCA variant type: BRCA1): 70 (12.5)/126 (22.6) events (%)
- Invasive disease free survival Events (%) (subgroup BRCA variant type: BRCA1/2): 0 (0.0)/0 (0.0) events (%)
- Invasive disease free survival Events (%) (subgroup BRCA variant type: BRCA2): 22 (9.6)/38 (18.2) events (%)
- Invasive disease free survival Events (%) (subgroup Bilateral oophorectomy prior to first dose): 14 (7.4)/38 (21.6) events (%)
- Invasive disease free survival Events (%) (subgroup Ethnicity: Hispanic or Latino): 7 (20.6)/7 (29.2) events (%)
- Invasive disease free survival Events (%) (subgroup Ethnicity: Not Hispanic or Latino): 88 (10.9)/153 (18.8) events (%)
- Invasive disease free survival Events (%) (subgroup Ethnicity: Not known, not recorded or refused): 11 (13.4)/18 (22.8) events (%)
- Invasive disease free survival Events (%) (subgroup Geographic region: Asia Pacific and South Africa): 30 (9.9)/55 (17.2) events (%)
- Invasive disease free survival Events (%) (subgroup Geographic region: Europe): 62 (12.9)/95 (21.0) events (%)
- Invasive disease free survival Events (%) (subgroup Geographic region: North America): 11 (9.0)/23 (17.4) events (%)
- Invasive disease free survival Events (%) (subgroup Geographic region: South America): 3 (18.8)/5 (41.7) events (%)
- Invasive disease free survival Events (%) (subgroup HR status: HR+/HER2−): 19 (11.3)/25 (15.9) events (%)
- Invasive disease free survival Events (%) (subgroup HR status: TNBC): 87 (11.6)/153 (20.2) events (%)
- Invasive disease free survival Events (%) (subgroup HR+/HER2− with adjuvant chemotherapy): 6 (9.4)/5 (7.7) events (%)
- Invasive disease free survival Events (%) (subgroup HR+/HER2− with neoadjuvant chemotherapy): 13 (12.5)/20 (21.7) events (%)
- Invasive disease free survival Events (%) (subgroup Jewish descent: No, not of Ashkenazi descent): 100 (11.4)/169 (19.3) events (%)
- Invasive disease free survival Events (%) (subgroup Jewish descent: Yes, of Ashkenazi descent): 6 (14.6)/9 (25.0) events (%)
- Invasive disease free survival Events (%) (subgroup No bilateral oophorectomy prior to first dose): 92 (12.6)/140 (18.9) events (%)
- Invasive disease free survival Events (%) (subgroup No prior platinum/ACT): 28 (7.3)/57 (14.8) events (%)
- Invasive disease free survival Events (%) (subgroup No prior platinum/HR+/HER2−): 13 (9.3)/22 (16.4) events (%)
- Invasive disease free survival Events (%) (subgroup No prior platinum/NACT): 44 (15.1)/78 (26.8) events (%)
- Invasive disease free survival Events (%) (subgroup No prior platinum/TNBC): 59 (11.1)/113 (20.8) events (%)
- Invasive disease free survival Events (%) (subgroup Primary Study Database: Breast International Group (BIG)): 95 (11.7)/160 (19.9) events (%)
- Invasive disease free survival Events (%) (subgroup Primary Study Database: NRG Oncology (US)): 11 (9.9)/18 (16.5) events (%)
- Invasive disease free survival Events (%) (subgroup Prior Chemo: Adjuvant): 36 (7.8)/61 (13.4) events (%)
- Invasive disease free survival Events (%) (subgroup Prior Chemo: Neoadjuvant): 70 (15.2)/117 (25.4) events (%)
- Invasive disease free survival Events (%) (subgroup Prior Platinum: No): 72 (10.7)/135 (20.0) events (%)
- Invasive disease free survival Events (%) (subgroup Prior Platinum: Yes): 34 (13.8)/43 (18.0) events (%)
- Invasive disease free survival Events (%) (subgroup Prior platinum/ACT): 8 (10.3)/4 (5.7) events (%)
- Invasive disease free survival Events (%) (subgroup Prior platinum/HR+/HER2−): 6 (21.4)/3 (13.0) events (%)
- Invasive disease free survival Events (%) (subgroup Prior platinum/NACT): 26 (15.4)/39 (23.1) events (%)
- Invasive disease free survival Events (%) (subgroup Prior platinum/TNBC): 28 (12.8)/40 (18.5) events (%)
- Invasive disease free survival Events (%) (subgroup Race: Asian): 25 (9.7)/46 (16.9) events (%)
- Invasive disease free survival Events (%) (subgroup Race: Black/African-American): 4 (21.1)/5 (17.2) events (%)
- Invasive disease free survival Events (%) (subgroup Race: Other): 2 (11.8)/3 (20.0) events (%)
- Invasive disease free survival Events (%) (subgroup Race: White): 75 (12.0)/124 (20.7) events (%)
- Invasive disease free survival Events (%) (subgroup TNBC adjuvant cohort, pN status at surgery: Node negative): 13 (6.4)/22 (11.5) events (%)
- Invasive disease free survival Events (%) (subgroup TNBC adjuvant cohort, pN status at surgery: Node positive): 15 (8.6)/31 (17.5) events (%)
- Invasive disease free survival Events (%) (subgroup TNBC with adjuvant chemotherapy): 30 (7.6)/56 (14.4) events (%)
- Invasive disease free survival Events (%) (subgroup TNBC with neoadjuvant chemotherapy): 57 (16.1)/97 (26.4) events (%)
- Invasive disease free survival Events (%) (subgroup breast surgery prior to randomisation: Breast conservation): 20 (9.0)/46 (19.2) events (%)
- Invasive disease free survival Events (%) (subgroup post neoadjuvant group: CPS + EG score of 2, 3 or 4): 55 (13.8)/96 (24.8) events (%)
- Invasive disease free survival Events (%) (subgroup post neoadjuvant group: CPS + EG score of 5 or 6): 11 (50.0)/10 (66.7) events (%)
- Invasive disease free survival Events (%) (subgroup prior chemotherapy: Anthracycline and taxane regimen): 101 (11.6)/168 (19.8) events (%)
- Invasive disease free survival Events (%) (subgroup prior chemotherapy: Anthracycline regimen (without taxane)): 0 (0.0)/2 (15.4) events (%)
- Invasive disease free survival Events (%) (subgroup prior chemotherapy: Taxane regimen (without Anthracycline)): 5 (11.6)/8 (15.4) events (%)

— patent US20240269135A1, “METHODS OF TREATING BREAST CANCER” (ASTRAZENECA AB, priority 2021, published 2024)
